Measured values as given in PubChem BioAssay (NCI).
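Assay format: 96-well plates, 48-hour exposure. TGI marks complete inhibition of growth.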

Key:
Assay in all cases: NCI-60 cell line screen, 48 h
[1] = tested on: NCI-H460 lung
[2] = tested on: UACC-62 melanoma
[3] = tested on: NCI-H226 lung
[4] = tested on: UACC-257 melanoma
[5] = tested on: HCC-2998 colon
[6] = tested on: SF-539 CNS
[7] = tested on: K-562 leukemia
[8] = tested on: UO-31 renal
[9] = tested on: M19-MEL melanoma
[10] = tested on: HOP-92 NSCLC
[11] = tested on: LXFL 529 NSCLC
[12] = tested on: DLD-1 colon
[13] = tested on: HL-60(TB) leukemia
[14] = tested on: IGROV1 ovarian
[15] = tested on: HCT-116 colon
[16] = tested on: SK-OV-3 ovarian
[17] = tested on: SW-620 colon
[18] = tested on: NCI-H23 lung
[19] = tested on: SK-MEL-28 melanoma
[20] = tested on: SR leukemia
[21] = tested on: SNB-75 CNS
[22] = tested on: TK-10 renal
[23] = tested on: OVCAR-8 ovarian
[24] = tested on: ACHN renal
[25] = tested on: HT29 colon
[26] = tested on: KM12 colon
[27] = tested on: OVCAR-3 ovarian
[28] = tested on: MOLT-4 leukemia
[29] = tested on: HOP-62 NSCLC
[30] = tested on: CCRF-CEM leukemia
[31] = tested on: SF-268 CNS
[32] = tested on: HOP-18 NSCLC
[33] = tested on: OVCAR-5 ovarian
[34] = tested on: U251 CNS
[35] = tested on: A549 NSCLC
[36] = tested on: SNB-19 CNS
[37] = tested on: COLO 205 colon
[38] = tested on: SF-295 CNS
[39] = tested on: SK-MEL-5 melanoma
[40] = tested on: NCI-H522 lung
[41] = tested on: OVCAR-4 ovarian
[42] = tested on: SN12C renal
[43] = tested on: A498 renal
[44] = tested on: MDA-MB-231 breast
[45] = tested on: PC-3 prostate
[46] = tested on: HS 578T breast
[47] = tested on: NCI/ADR-RES ovarian
[48] = tested on: CAKI-1 renal
[49] = tested on: EKVX NSCLC
[50] = tested on: SK-MEL-2 melanoma
[51] = tested on: RXF 393 renal
[52] = tested on: RPMI-8226 leukemia
[53] = tested on: MCF7 breast
[54] = tested on: MALME-3M melanoma
[55] = tested on: DU-145 prostate
[56] = tested on: M14 melanoma
[57] = tested on: MDA-N
[58] = tested on: BT-549 breast
[59] = tested on: 786-0 renal
[60] = tested on: T-47D breast
[61] = tested on: HCT-15 colon
[62] = tested on: MDA-MB-435
[63] = tested on: LOX IMVI melanoma

For `COc1ccc(/C=N/NC(=O)c2sc(=S)n(-c3ccccc3)c2N)cc1`, the TGI [1] was > 100 µM, the TGI [2] was > 100 µM and the TGI [3] was > 100 µM. For the same molecule, the TGI [4] was > 100 µM, the TGI [5] was > 100 µM and the TGI [6] was > 100 µM. The TGI [7] was > 100 µM, the TGI [8] was > 100 µM and the TGI [9] was > 100 µM. The TGI [10] was 79.5 µM, the TGI [11] was > 100 µM and the TGI [12] was > 100 µM. The TGI [13] was > 100 µM, the TGI [14] was > 100 µM and the TGI [15] was > 100 µM. For the same molecule, the TGI [16] was > 100 µM, the TGI [17] was > 100 µM and the TGI [18] was > 100 µM. For the same molecule, the TGI [19] was > 100 µM, the TGI [20] was > 100 µM and the TGI [21] was 8.67 µM. The TGI [22] was > 100 µM, the TGI [23] was > 100 µM and the TGI [24] was > 100 µM. For the same molecule, the TGI [25] was > 100 µM, the TGI [26] was > 100 µM and the TGI [27] was > 100 µM. For the same molecule, the TGI [28] was > 100 µM, the TGI [29] was > 100 µM and the TGI [30] was > 100 µM. For the same molecule, the TGI [31] was > 100 µM, the TGI [32] was > 100 µM and the TGI [33] was > 100 µM. The TGI [34] was > 100 µM, the TGI [35] was > 100 µM and the TGI [36] was > 100 µM. The TGI [37] was > 100 µM, the TGI [38] was > 100 µM and the TGI [39] was > 100 µM. The TGI [40] was > 100 µM.
`COC(=O)c1c(C)cccc1C1CN=NC12Cc1ccccc1C2=O` (stereo not drawn) was tested, and the TGI [41] was > 100 µM, the TGI [1] was > 100 µM and the TGI [2] was > 100 µM. For the same molecule, the TGI [3] was > 100 µM, the TGI [42] was > 100 µM and the TGI [4] was > 91.3 µM. For the same molecule, the TGI [5] was > 100 µM, the TGI [6] was > 100 µM and the TGI [7] was > 100 µM. The TGI [43] was > 100 µM, the TGI [8] was > 100 µM and the TGI [10] was > 100 µM. The TGI [13] was > 100 µM, the TGI [14] was > 100 µM and the TGI [15] was > 100 µM. The TGI [16] was > 100 µM, the TGI [44] was > 100 µM and the TGI [45] was > 100 µM. For the same molecule, the TGI [46] was > 100 µM, the TGI [47] was > 100 µM and the TGI [48] was > 100 µM. For the same molecule, the TGI [49] was > 100 µM, the TGI [17] was > 100 µM and the TGI [18] was > 100 µM. For the same molecule, the TGI [19] was > 100 µM, the TGI [20] was > 100 µM and the TGI [21] was > 100 µM. The TGI [22] was > 100 µM, the TGI [50] was > 100 µM and the TGI [23] was > 100 µM. The TGI [51] was > 100 µM, the TGI [24] was > 100 µM and the TGI [52] was > 100 µM. For the same molecule, the TGI [25] was > 100 µM, the TGI [26] was > 100 µM and the TGI [27] was > 100 µM. For the same molecule, the TGI [28] was > 100 µM, the TGI [53] was > 43.8 µM and the TGI [54] was > 100 µM. The TGI [29] was > 100 µM, the TGI [30] was > 100 µM and the TGI [55] was > 100 µM. The TGI [31] was > 100 µM, the TGI [56] was > 87.9 µM and the TGI [57] was > 100 µM. The TGI [58] was > 100 µM, the TGI [33] was > 100 µM and the TGI [34] was > 100 µM. The TGI [35] was > 100 µM, the TGI [36] was > 100 µM and the TGI [59] was > 100 µM. The TGI [37] was > 100 µM, the TGI [38] was > 100 µM and the TGI [60] was > 100 µM. The TGI [61] was > 100 µM, the TGI [39] was > 100 µM and the TGI [62] was > 100 µM. For the same molecule, the TGI [63] was > 100 µM and the TGI [40] was > 100 µM.
For `Cn1c2ccccc2n2c3ncccc3c(=NCCCC(=O)O)c(C#N)c12`, the TGI [41] was > 100 µM, the TGI [1] was > 100 µM and the TGI [2] was > 100 µM. For the same molecule, the TGI [3] was > 100 µM, the TGI [42] was > 100 µM and the TGI [5] was > 100 µM. The TGI [7] was > 100 µM, the TGI [43] was > 100 µM and the TGI [8] was > 100 µM. For the same molecule, the TGI [13] was > 100 µM, the TGI [14] was > 100 µM and the TGI [15] was > 100 µM. For the same molecule, the TGI [16] was > 100 µM, the TGI [44] was > 100 µM and the TGI [45] was > 100 µM. The TGI [46] was > 100 µM, the TGI [47] was > 100 µM and the TGI [48] was > 100 µM. For the same molecule, the TGI [49] was > 100 µM, the TGI [17] was > 100 µM and the TGI [18] was > 100 µM. The TGI [19] was > 100 µM, the TGI [20] was > 100 µM and the TGI [21] was > 100 µM. For the same molecule, the TGI [50] was > 100 µM, the TGI [23] was > 100 µM and the TGI [51] was > 100 µM. For the same molecule, the TGI [24] was > 100 µM, the TGI [52] was > 100 µM and the TGI [25] was > 100 µM. The TGI [26] was > 100 µM, the TGI [27] was > 100 µM and the TGI [28] was > 100 µM. The TGI [53] was > 100 µM, the TGI [54] was > 100 µM and the TGI [29] was > 100 µM. The TGI [30] was > 100 µM, the TGI [55] was > 100 µM and the TGI [31] was > 100 µM. For the same molecule, the TGI [56] was > 100 µM, the TGI [57] was > 100 µM and the TGI [58] was > 100 µM. The TGI [33] was > 100 µM, the TGI [34] was > 100 µM and the TGI [35] was > 100 µM. The TGI [36] was > 100 µM, the TGI [59] was > 100 µM and the TGI [37] was > 100 µM. For the same molecule, the TGI [38] was > 100 µM, the TGI [60] was > 100 µM and the TGI [61] was > 100 µM. The TGI [39] was > 100 µM, the TGI [62] was > 100 µM and the TGI [63] was > 100 µM. For the same molecule, the TGI [40] was > 100 µM.
With `O=C(c1ccccc1)c1ccc(N2C(=O)/C(=C/Cc3ccco3)N=C2c2ccccc2)c(N2C(=O)/C(=C/Cc3ccco3)N=C2c2ccccc2)c1` the TGI [41] was > 100 µM, the TGI [1] was > 100 µM and the TGI [2] was > 100 µM. The TGI [42] was > 100 µM, the TGI [4] was > 100 µM and the TGI [5] was > 100 µM. The TGI [6] was 32.7 µM, the TGI [7] was > 100 µM and the TGI [43] was > 100 µM. For the same molecule, the TGI [8] was > 100 µM, the TGI [10] was > 100 µM and the TGI [13] was 45.7 µM. For the same molecule, the TGI [14] was > 100 µM, the TGI [15] was > 100 µM and the TGI [16] was 83 µM. For the same molecule, the TGI [44] was > 100 µM, the TGI [45] was > 100 µM and the TGI [46] was 64.9 µM. The TGI [47] was > 100 µM, the TGI [48] was > 100 µM and the TGI [49] was > 100 µM. For the same molecule, the TGI [17] was > 100 µM, the TGI [19] was > 100 µM and the TGI [20] was > 100 µM. For the same molecule, the TGI [21] was 66.9 µM, the TGI [22] was > 100 µM and the TGI [50] was 58.6 µM. The TGI [23] was > 100 µM, the TGI [24] was > 100 µM and the TGI [52] was 91.3 µM. For the same molecule, the TGI [25] was > 100 µM, the TGI [26] was > 100 µM and the TGI [27] was 46.7 µM. The TGI [28] was 56.6 µM, the TGI [53] was > 100 µM and the TGI [29] was > 100 µM. The TGI [30] was 53.5 µM, the TGI [55] was 96.6 µM and the TGI [31] was > 100 µM. The TGI [56] was > 100 µM, the TGI [57] was > 100 µM and the TGI [58] was > 100 µM. The TGI [33] was > 100 µM, the TGI [34] was 43.8 µM and the TGI [35] was > 100 µM. For the same molecule, the TGI [36] was > 100 µM, the TGI [59] was > 100 µM and the TGI [37] was > 100 µM. The TGI [38] was > 100 µM, the TGI [60] was > 100 µM and the TGI [61] was > 100 µM. The TGI [39] was 88.5 µM, the TGI [62] was 94.9 µM and the TGI [63] was 58.3 µM.
